Test results published in the supplement of paper PMC11208160.

Assay: recombinant barcode read abundance after kanamycin selection (control-corrected) (log10(CPM+1)); higher = more efficient recombination; sequences stand for … in AGTGCAGAGAAAATCGGCCAGTTTTCTCTGCCTGCAGTCCGCATGCCGT…AGATTTATGCAGCGGACTGCCTTTCTCCCAAAGTGATAAACCGGACAGTATCATGGACCGGTTTTCCCGGTAATCCGTATTTGCAAGGTTGGTTTCACT; site = the 11-nt target
Method in brief: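 Targets and IS621 bridge RNA target-binding loops were paired in oligos, each with a promoter, a barcode and the J23119-driven first 104 bridge RNA bases. A vector carrying the remaining 73 bp and a T7-inducible recombinase received these by Gibson cloning, and the pool was co-electroporated into E. coli with a donor plasmid. Duplicate plates contained chloramphenicol/ampicillin LB agar (control) or chloramphenicol/ampicillin/kanamycin with 0.1 mM IPTG. Recombination efficiency comes from averaged, control-corrected counts per million of recombinant-junction barcodes, reported as log10(CPM+1).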
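Note: IS621 recombinase and bridge RNA in Escherichia coli cells.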

Sequence | recombinant barcode read abundance (log10)
CGCTGGACTTGGGTTCTAACCTGTTGCCT (site CGCTAGACTAG) | 0.0452
CGCTGGACTTGGGTTCTAACCTGTTGCCT (site CGCTCGACTAG) | 0.0114
CGCTGGACTTGGGTTCTAACCTGTTGCCT (site CGCTGGACTAG) | 0.158
CGCTGGACTTGGGTTCTAACCTGTTGCCT (site CGCTTGACTAG) | 0.0799
CGCTTGTCTTGGGTTCTAACCTGTTGCCT (site CGCTAGTCTAG) | 0.0576
CGCTTGTCTTGGGTTCTAACCTGTTGCCT (site CGCTCGTCTAG) | 0.00757
CGCTTGTCTTGGGTTCTAACCTGTTGCCT (site CGCTGGTCTAG) | 0.117
CGCTTGTCTTGGGTTCTAACCTGTTGCCT (site CGCTTGTCTAG) | 0.15
CGGAAGTCTTGGGTTCTAACCTGTTGCCT (site CGGAAGACTAG) | 0.0548
CGGAAGTCTTGGGTTCTAACCTGTTGCCT (site CGGAAGCCTAG) | 0.452
CGGAAGTCTTGGGTTCTAACCTGTTGCCT (site CGGAAGGCTAG) | 0.247
CGGAAGTCTTGGGTTCTAACCTGTTGCCT (site CGGAAGTCTAG) | 1.7
CGGAATCCTTGGGTTCTAACCTGTTGCAT (site CGGAATCCTAA) | 0.297
CGGAATCCTTGGGTTCTAACCTGTTGCAT (site CGGAATCCTAC) | 0.841
CGGAATCCTTGGGTTCTAACCTGTTGCAT (site CGGAATCCTAG) | 0.29
CGGAATCCTTGGGTTCTAACCTGTTGCAT (site CGGAATCCTAT) | 1.15
CGGAATCCTTGGGTTCTAACCTGTTGCTT (site CGGAATCCTAA) | 0.9
CGGAATCCTTGGGTTCTAACCTGTTGCTT (site CGGAATCCTAC) | 0.0576
CGGAATCCTTGGGTTCTAACCTGTTGCTT (site CGGAATCCTAG) | 0.316
CGGAATCCTTGGGTTCTAACCTGTTGCTT (site CGGAATCCTAT) | 0.707
CGGAGCCCTTGGGTTCTAACCTGTTGCAT (site CGCAGCCCTAT) | 0.0297
CGGAGCCCTTGGGTTCTAACCTGTTGCAT (site CGGAGCCCTAT) | 1.63

Sequence | recombinant barcode read abundance (log10)
CGGAGCTCTTGGGTTCTAACCTGTTGCCT (site CGAAGCTCTAG) | 0.58
CGGAGCTCTTGGGTTCTAACCTGTTGCCT (site CGCAGCTCTAG) | 0.293
CGGAGCTCTTGGGTTCTAACCTGTTGCCT (site CGGAGCTCTAG) | 1.94
CGGAGCTCTTGGGTTCTAACCTGTTGCCT (site CGTAGCTCTAG) | 0.0387
CGGATAGCTTGGGTTCTAACCTGTTGCCT (site CGGATAGCTAG) | 0.885
CGGATAGCTTGGGTTCTAACCTGTTGCCT (site CGGATCGCTAG) | 0.0282
CGGATAGCTTGGGTTCTAACCTGTTGCCT (site CGGATGGCTAG) | 0.153
CGGATAGCTTGGGTTCTAACCTGTTGCCT (site CGGATTGCTAG) | 0.553
CGGATGGCTTGGGTTCTAACCTGTTGCCT (site CGGATAGCTAG) | 0.031
CGGATGGCTTGGGTTCTAACCTGTTGCCT (site CGGATCGCTAG) | 0.0869
CGGATGGCTTGGGTTCTAACCTGTTGCCT (site CGGATGGCTAG) | 0.64
CGGATGGCTTGGGTTCTAACCTGTTGCCT (site CGGATTGCTAG) | 0.0444
CGGATTGCTTGGGTTCTAACCTGTTGCCT (site CGGATAGCTAG) | 0
CGGATTGCTTGGGTTCTAACCTGTTGCCT (site CGGATCGCTAG) | 0.0723
CGGATTGCTTGGGTTCTAACCTGTTGCCT (site CGGATGGCTAG) | 0.122
CGGATTGCTTGGGTTCTAACCTGTTGCCT (site CGGATTGCTAG) | 0.533
CGGCACACTTGGGTTCTAACCTGTTGCGG (site CGGAACACTCC) | 0.06
CGGCACACTTGGGTTCTAACCTGTTGCGG (site CGGCACACTCC) | 1.86
CGGCACACTTGGGTTCTAACCTGTTGCGG (site CGGGACACTCC) | 0.143
CGGCACACTTGGGTTCTAACCTGTTGCGG (site CGGTACACTCC) | 0.582
CGGCCACCTTGGGTTCTAACCTGTTGCTT (site AATGGGGCTCT) | 0.0969
CGGCCACCTTGGGTTCTAACCTGTTGCTT (site CGGCCACCTAA) | 1.02

Sequence | recombinant barcode read abundance (log10)
CGGCCCACTTGGGTTCTAACCTGTTGCGG (site CGGCCCACTCC) | 2.35
CGGCCCACTTGGGTTCTAACCTGTTGCGG (site CGGGCCACTAC) | 0.033
CGGCCGCCTTGGGTTCTAACCTGTTGCTT (site CGGCCGCCTAA) | 0.69
CGGCCGCCTTGGGTTCTAACCTGTTGCTT (site GGGTCGCCTAA) | 0.0563
CGGCTCCCTTGGGTTCTAACCTGTTGCTT (site CGGCTCCCTAA) | 1.24
CGGCTCCCTTGGGTTCTAACCTGTTGCTT (site GACACAACTTG) | 0.147
CGGGCCACTTGGGTTCTAACCTGTTGCCT (site CAGGCCACTAG) | 0.198
CGGGCCACTTGGGTTCTAACCTGTTGCCT (site CCGGCCACTAG) | 0.0207
CGGGCCACTTGGGTTCTAACCTGTTGCCT (site CGGGCCACTAG) | 0.442
CGGGCCACTTGGGTTCTAACCTGTTGCCT (site CTGGCCACTAG) | 0.177
CGGGCCTCTTGGGTTCTAACCTGTTGCTG (site CGGGCCTCTAA) | 0.504
CGGGCCTCTTGGGTTCTAACCTGTTGCTG (site CGGGCCTCTCA) | 2.82
CGGGCCTCTTGGGTTCTAACCTGTTGCTG (site CGGGCCTCTGA) | 0.217
CGGGCCTCTTGGGTTCTAACCTGTTGCTG (site CGGGCCTCTTA) | 0.872
CGGGCGTCTTGGGTTCTAACCTGTTGCTA (site ATTCGAGCTAT) | 0.116
CGGGCGTCTTGGGTTCTAACCTGTTGCTA (site CGGGCGTCTTA) | 1.17
CGGGCTACTTGGGTTCTAACCTGTTGCGG (site CGGGCTACTCC) | 3.05
CGGGCTACTTGGGTTCTAACCTGTTGCGG (site GGGACTACTCC) | 0.0963
CGGGCTACTTGGGTTCTAACCTGTTGCTA (site CGGGCTACTTA) | 1.79
CGGGCTACTTGGGTTCTAACCTGTTGCTA (site GGGGCAACTTA) | 0.209
CGGGGCCCTTGGGTTCTAACCTGTTGCTT (site CGGGGCCCTAA) | 2.6
CGGGGCCCTTGGGTTCTAACCTGTTGCTT (site GACTAGTCTCT) | 0.167

Sequence | recombinant barcode read abundance (log10)
CGGGGTCCTTGGGTTCTAACCTGTTGCTA (site CGGAGTCCTTA) | 1.68
CGGGGTCCTTGGGTTCTAACCTGTTGCTA (site CGGCGTCCTTA) | 0.41
CGGGGTCCTTGGGTTCTAACCTGTTGCTA (site CGGGGTCCTTA) | 2.5
CGGGGTCCTTGGGTTCTAACCTGTTGCTA (site CGGTGTCCTTA) | 0.35
CGGTCATCTTGGGTTCTAACCTGTTGCCT (site CGATCATCTAG) | 0.331
CGGTCATCTTGGGTTCTAACCTGTTGCCT (site CGCTCATCTAG) | 0.171
CGGTCATCTTGGGTTCTAACCTGTTGCCT (site CGGTCATCTAG) | 0.537
CGGTCATCTTGGGTTCTAACCTGTTGCCT (site CGTTCATCTAG) | 0.417
CGTAAACCTTGGGTTCTAACCTGTTGCGT (site CGTAAACCTAC) | 0.451
CGTAAACCTTGGGTTCTAACCTGTTGCGT (site CGTCAACCTAC) | 0.0732
CGTAAACCTTGGGTTCTAACCTGTTGCGT (site CGTGAACCTAC) | 0.159
CGTAAACCTTGGGTTCTAACCTGTTGCGT (site CGTTAACCTAC) | 0.393
CGTAAGACTTGGGTTCTAACCTGTTGCCT (site CGTAAGACTAG) | 0.489
CGTAAGACTTGGGTTCTAACCTGTTGCCT (site CGTCAGACTAG) | 0.265
CGTAAGACTTGGGTTCTAACCTGTTGCCT (site CGTGAGACTAG) | 0.0483
CGTAAGACTTGGGTTCTAACCTGTTGCCT (site CGTTAGACTAG) | 0.0104
CGTACCGCTTGGGTTCTAACCTGTTGCCT (site CCTACCGCTAA) | 0.153
CGTACCGCTTGGGTTCTAACCTGTTGCCT (site CGTACCGCTAG) | 0.496
CGTACCTCTTGGGTTCTAACCTGTTGCTC (site CGTACCTCTAA) | 0.056
CGTACCTCTTGGGTTCTAACCTGTTGCTC (site CGTACCTCTCA) | 0.0772
